The numbers were not newly measured in US12691079B2, “Biodissolvable film for localized and efficient treatment of vulvodynia” (The University of North Carolina at Chapel Hill, priority 2019, dated 2026), which cites them from elsewhere.

In the data set the test system is vulvar vestibule. The note with it: topical application to the vulvar vestibule.

On to `CCN(CC)CC(=O)Nc1c(C)cccc1C` [lidocaine], for which the duration of relief is 30 to 60 min.
